Reference: ChEMBL document CHEMBL5260817, “Polyamine-based analogs and conjugates as antikinetoplastid agents” (Eur J Med Chem, 2017)

Columns and labels:
Trypanosoma cruzi [1] = assay: Antiprotozoal activity against Trypanosoma cruzi; format: functional, organism-based
Trypanothione reductase [2] = target: T1, Trypanothione reductase (Trypanosoma cruzi, UniProt P28593); assay: Inhibition of Trypanosoma cruzi TryR
[3] = tested on: Trypanosoma brucei brucei; assay: Antiprotozoal activity against Trypanosoma brucei brucei; format: functional, organism-based
Trypanosoma brucei [4] = assay: Trypanocidal activity against Trypanosoma brucei K 243-As-10-3 strain; format: functional, organism-based
Trypanosoma brucei [5] = assay: Trypanocidal activity against Trypanosoma brucei K 269 strain; format: functional, organism-based
Trypanosoma brucei [6] = assay: Trypanocidal activity against Trypanosoma brucei K 243 strain; format: functional, organism-based
Trypanosoma brucei [7] = assay: Trypanocidal activity against Trypanosoma brucei Lab 110 strain; format: functional, organism-based
[8] = Inhibition of Trypanosoma brucei MetRS
Trypanosoma brucei [9] = assay: Antiprotozoal activity against Trypanosoma brucei; format: functional, organism-based
Trypanothione reductase [10] = target: T1, Trypanothione reductase; assay: Inhibition of Trypanosoma cruzi TryR assessed as inhibition constant
Trypanothione reductase [11] = target: T2, Trypanothione reductase (Trypanosoma brucei brucei, UniProt P39051); assay: Inhibition of Trypanosoma brucei TryR assessed as inhibition constant
T2 sequence (P39051 whole entry): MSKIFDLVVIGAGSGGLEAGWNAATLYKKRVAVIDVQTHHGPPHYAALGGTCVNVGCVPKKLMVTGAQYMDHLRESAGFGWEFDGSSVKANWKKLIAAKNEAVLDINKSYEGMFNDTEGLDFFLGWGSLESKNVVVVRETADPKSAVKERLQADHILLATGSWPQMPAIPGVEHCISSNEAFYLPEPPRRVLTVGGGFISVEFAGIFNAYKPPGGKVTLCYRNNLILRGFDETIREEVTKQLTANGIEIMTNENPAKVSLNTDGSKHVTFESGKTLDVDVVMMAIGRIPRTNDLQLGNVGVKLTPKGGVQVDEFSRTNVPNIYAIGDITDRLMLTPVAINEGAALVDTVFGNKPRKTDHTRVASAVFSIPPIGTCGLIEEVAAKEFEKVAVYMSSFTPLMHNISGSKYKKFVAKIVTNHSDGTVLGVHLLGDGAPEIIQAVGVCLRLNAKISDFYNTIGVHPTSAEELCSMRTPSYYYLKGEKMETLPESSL

Leishmania donovani [12] = assay: Antiprotozoal activity against Leishmania donovani; format: functional, organism-based
[13] = tested on: Trypanosoma brucei rhodesiense; assay: Antiprotozoal activity against Trypanosoma brucei rhodesiense; format: functional, organism-based
Trypanosoma cruzi [14] = assay: Antiprotozoal activity against Trypanosoma cruzi epimastigotes; format: functional, organism-based; conditions: Trypanosoma cruzi
Trypanothione reductase [15] = target: T1, Trypanothione reductase; assay: Inhibition of Trypanosoma cruzi TryR assessed as inhibition constant by TR assay
Leishmania braziliensis = assay: Antiprotozoal activity against Leishmania braziliensis MHOM/PE/84/LC26 amastigotes infected in mouse J774.2 cells measured after 72 hrs; format: functional, organism-based; conditions: J774.2, 72 h
Leishmania donovani [16] = assay: Antiprotozoal activity against Leishmania donovani MHOM/SD/00/1S-2D strain promastigotes assessed as parasitic death; format: functional, organism-based
Leishmania donovani [17] = assay: Antiprotozoal activity against Leishmania donovani MHOM/SD/00/1S-2D strain promastigotes assessed as parasitic death at 10 uM relative to control; format: functional
[18] = Inhibition of TryR (unknown origin) assessed as inhibition constant; design: species or system Bacteria
Trypanothione reductase [19] = target: T1, Trypanothione reductase; assay: Inhibition of Trypanosoma cruzi TryR expressed in escherichia coli in presence of NADPH
Leishmania donovani [20] = assay: Antiprotozoal activity against Leishmania donovani promastigotes; format: functional, organism-based
Leishmania chagasi = assay: Antiprotozoal activity against Leishmania chagasi measured after 3 days by MTT assay; format: functional, organism-based; conditions: 72 h
Leishmania amazonensis [21] = assay: Antiprotozoal activity against Leishmania amazonensis measured after 3 days by MTT assay; format: functional, organism-based; conditions: 72 h
Leishmania amazonensis [22] = assay: Antiprotozoal activity against Leishmania amazonensis promastigotes measured after 48 hrs by MTT assay; format: functional, organism-based
Trypanothione reductase [23] = target: T2, Trypanothione reductase; assay: Inhibition of Trypanosoma brucei TryR
Trypanothione reductase [24] = target: T1, Trypanothione reductase; assay: Inhibition of Trypanosoma cruzi TryR assessed as inhibition constant in presence of NADPH
Homo sapiens = organism: Homo sapiens; assay: Inhibition of Superoxide dismutase (unknown origin) at 100 uM measured after 24 hrs relative to control
[25] = tested on: Trypanosoma brucei brucei; assay: Antiprotozoal activity against Trypanosoma brucei brucei Lab 110 EATRO strain; format: functional, organism-based
Leishmania donovani [26] = assay: Antiprotozoal activity against Leishmania donovani amastigotes assessed as growth inhibition measured after 7 days relative to control; format: functional; conditions: time 7 day

T1 sequence (P28593 whole entry): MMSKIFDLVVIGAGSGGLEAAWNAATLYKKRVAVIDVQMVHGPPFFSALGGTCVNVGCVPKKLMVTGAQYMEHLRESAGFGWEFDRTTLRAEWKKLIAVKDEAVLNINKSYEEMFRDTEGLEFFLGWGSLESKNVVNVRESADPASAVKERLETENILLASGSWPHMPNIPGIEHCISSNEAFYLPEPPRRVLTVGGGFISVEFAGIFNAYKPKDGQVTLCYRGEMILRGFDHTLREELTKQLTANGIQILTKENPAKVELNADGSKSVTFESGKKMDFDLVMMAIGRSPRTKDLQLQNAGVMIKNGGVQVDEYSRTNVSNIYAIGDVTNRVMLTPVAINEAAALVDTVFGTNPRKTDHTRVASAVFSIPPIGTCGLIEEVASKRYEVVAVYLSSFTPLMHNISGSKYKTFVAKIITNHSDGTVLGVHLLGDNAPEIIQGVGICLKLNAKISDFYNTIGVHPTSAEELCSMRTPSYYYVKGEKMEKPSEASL

## CCN(CCCCN1CN(C(CC(C)C)C(=O)O)CSC1=S)CCCN1CN(C(CC(C)C)C(=O)O)CSC1=S (stereo unspecified)
Trypanosoma cruzi [1]
  IC50: 3.64 µM

## CN1CCN(CCCNC(=O)CCCCCC2=C(CCCCCC(=O)NCCCN3CCN(C)CC3)C(=O)c3c(N)cccc3C2=O)CC1
Trypanothione reductase [2]
  IC50: 0.8 µM

## COc1ccc2c(C(=O)C(=O)NCCCNCCCCCCCCCCCCNCCCNC(=O)C(=O)c3c[nH]c4cc(OC)ccc34)c[nH]c2c1
[3]
  IC50: 0.18 µM

## c1ccc(CCCN(CCCCN(CCCc2ccccc2)CCCN(CCCc2ccccc2)CCCc2ccccc2)CCCN(CCCc2ccccc2)CCCc2ccccc2)cc1
Trypanosoma brucei [4]
  IC50: 20 µM
Trypanosoma brucei [5]
  IC50: 20 µM
Trypanosoma brucei [6]
  IC50: 20 µM
Trypanosoma brucei [7]
  IC50: 20 µM

## Clc1cc(Cl)c2c(c1)[C@H](NCCCNc1nc3ncccc3[nH]1)CCN2
[8]
  IC50: 0.002 µM
Trypanosoma brucei [9]
  IC50: 0.0004 µM

## c1ccc(-c2cccc(CNCCCNCCCCCCCNCCCNCc3cccc(-c4ccccc4)c3)c2)cc1
Trypanosoma brucei [9]
  IC50: 1 µM

## CCCNCCCNC(=O)CNC(=O)[C@H](CC(Br)C(Br)C[C@H](NC(=O)OCc1ccccc1)C(=O)NCC(=O)NCCCNCCC)NC(=O)OCc1ccccc1 (stereo partly specified)
Trypanothione reductase [10]
  Ki: 15.9 µM

## O=C(Cc1ccccc1)NCCCNCCCCNCCCNC(=O)Cc1ccccc1
Trypanothione reductase [11]
  Ki: > 100 µM

## NCCCCNCCCNC(=O)C(=O)c1c[nH]c2cc(Br)ccc12
Trypanosoma cruzi [1]
  IC50: > 40 µM
Leishmania donovani [12]
  IC50: > 40 µM
[13]
  IC50: > 40 µM

## Clc1ccc(Sc2ccccc2)c(NCCN2CCCC2)c1
Trypanosoma cruzi [14]
  IC50: 10 µM
Trypanothione reductase [15]
  Ki: 86 µM

## CN1CCN(CCC(=O)Nc2cc(Cl)ccc2Sc2cccc(NC(=O)CCCC(=O)Nc3cccc(Sc4ccc(Cl)cc4NC(=O)CCN4CCN(C)CC4)c3)c2)CC1
Leishmania braziliensis
  IC50: 0.93 µM
Trypanothione reductase [2]
  IC50: 0.93 µM

## COc1ccc2nc3cc(Cl)ccc3c(NCCCCN(CCCNc3c4ccc(Cl)cc4nc4ccc(OC)cc34)C(=O)[C@H](C)N)c2c1
Leishmania donovani [16]
  IC50: 1 µM
Leishmania donovani [17]
  inhibition at 10 µM: 90%

## CC(=O)c1ccc(Sc2ccccc2NCCCN(CCCN)CCCCN(CCCN)CCCNc2cc(Cl)ccc2Sc2ccc(C(C)=O)cc2)cc1
[18]
  Ki: 0.4 µM

## O=C1NC(=O)C(c2c[nH]c3ccccc23)=C1NCCCNCCCNC1=C(c2c[nH]c3ccccc23)C(=O)NC1=O
Trypanothione reductase [19]
  IC50: > 57 µM

## NCCCCNCCCNC(=O)C(=O)c1c[nH]c2ccccc12
Trypanosoma cruzi [1]
  IC50: > 40 µM
Leishmania donovani [12]
  IC50: > 40 µM
[13]
  IC50: > 40 µM

## CN(C)CCNc1cc(Cl)ccc1Sc1ccccc1
Trypanothione reductase [15]
  Ki: 90 µM

## C(CCCNCCCNCC1CCCCCC1)CCCNCCCNCC1CCCCCC1
[13]
  IC50: 0.16 µM

## c1ccc2cc(CNCCCCNCCCNCc3ccc4ccccc4c3)ccc2c1
Trypanosoma brucei [9]
  IC50: 0.19 µM

## NCCCCN(Cc1ccccc1)Cc1ccc(OCc2ccccc2)cc1
Leishmania donovani [20]
  IC50: < 1 µM

## CCCCCCCCCCCCNCCCCN
Leishmania chagasi
  IC50: 0.53 µM
Leishmania amazonensis [21]
  IC50: 5.13 µM

## CC(C)=CCC/C(C)=C/CC/C(C)=C/CNCCN
Leishmania amazonensis [22]
  IC50: 16.8 µM

## CN1CCN(CCCN2c3ccccc3Sc3ccc(Cl)cc32)CC1 [PROCHLORPERAZINE]
Trypanothione reductase [23]
  IC50: 7.5 µM

## CC(C)(C)OC(=O)N(CCCN)CCCCN
Trypanothione reductase [24]
  Ki: > 2000 µM

## O=C(NCCCCCCNC(=O)c1cccc(O)c1O)c1cccc(O)c1O
Homo sapiens
  inhibition: 80%

## NCCCN(CCCCN(CCCN)CCCc1ccccc1)CCCc1ccccc1
Trypanothione reductase [11]
  Ki: 3 µM
Trypanosoma brucei [4]
  IC50: 0.5 µM
Trypanosoma brucei [5]
  IC50: 0.5 µM
Trypanosoma brucei [6]
  IC50: 0.5 µM
Trypanosoma brucei [7]
  IC50: 0.5 µM

## CCCNCCCCCCCCCNC(=O)[C@H](O)[C@H](O)[C@H](O)CO
Leishmania chagasi
  IC50: 2.5 µM

## CCCCCCCCCCCCNCCN
Leishmania chagasi
  IC50: 0.2 µM
Leishmania amazonensis [21]
  IC50: 0.94 µM

## OCCn1c(CNCCCNc2nc3ccccc3[nH]2)cc2c(Cl)cc(Cl)cc21
[8]
  IC50: < 0.025 µM
Trypanosoma brucei [9]
  IC50: 0.001 µM

## CN1CCN(CCCNC(=O)/C=C/c2ccc3occ(/C=C/C(=O)NCCCN4CCN(C)CC4)c3c2)CC1
[18]
  Ki: 3.5 µM

## CC(=O)N(CCCN)CCCCN
Trypanothione reductase [24]
  Ki: > 2000 µM

## CC(C)=CCC/C(C)=C/CC/C(C)=C/CNCCCCN
Leishmania amazonensis [22]
  IC50: 15 µM

## NCCCNCCCCNCCCNCCCc1ccccc1
Trypanothione reductase [10]
  Ki: 37 µM

## CC(C)=CCC/C(C)=C/CC/C(C)=C/CNCCCN
Leishmania amazonensis [22]
  IC50: 4.9 µM

## N=C(N)c1ccc(N2CCCN(c3ccc(C(=N)N)cc3)CC2)cc1
[25]
  IC50: 0.002 µM

## CN1CCN(CCCNCCC#N)CC1
Leishmania donovani [26]
  inhibition (INH): 80%

## CCCCCCCCCCCC(=O)NCCCCN
Leishmania chagasi
  IC50: 10 µM
Leishmania amazonensis [21]
  IC50: 10 µM

## CCCNCCCNC(=O)CNC(=O)[C@H](CCCC[C@H](NC(=O)OCC1c2ccccc2-c2ccccc21)C(=O)NCC(=O)NCCCNCCC)NC(=O)OCC1c2ccccc2-c2ccccc21
Trypanothione reductase [10]
  Ki: 2 µM
